Data from paper PMC3642162 (FEBS Open Bio, 2012).

Key:
TRα and TRβ = details: cited from earlier work
human TRα-1 and TRβ-1 = experiment: TR biosensors; type: cell-based; details: both biosensor strains
human TRα-1 = biological target: T1, human TRα-1 (Homo sapiens, UniProt P10827); type: cell-based
T1 sequence (P10827 149-407 isoform P10827-2): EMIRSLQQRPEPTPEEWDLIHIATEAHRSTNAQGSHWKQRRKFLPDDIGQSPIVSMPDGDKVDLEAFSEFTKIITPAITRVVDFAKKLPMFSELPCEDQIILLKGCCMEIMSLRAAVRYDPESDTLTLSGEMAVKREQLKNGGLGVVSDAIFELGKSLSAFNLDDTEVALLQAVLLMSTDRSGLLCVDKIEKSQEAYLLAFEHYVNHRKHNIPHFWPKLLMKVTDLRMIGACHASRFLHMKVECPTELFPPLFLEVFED

TRα = details: transcriptional activation assay; cited from earlier work
TRβ = details: cited from earlier work
human ER β = human ER β biosensor, relative to 100% for 17-β-estradiol; cited from earlier work
porcine ER β = porcine ER β biosensor; cited from earlier work

Row | Compound | Other methods, reported activity (TRα and TRβ) | TR biosensors, qualitative activity (human TRα-1 and TRβ-1) | other results
1 | CC(C)c1cc(Oc2c(Cl)cc(CC(=O)O)cc2Cl)ccc1O [KB-141, 3,5-dichloro-4-(4-hydroxy-3-isopropylphenoxy) phenylacetic acid] | Agonist, TRβ selective | Agonist, TRβ selective | 
2 | Cc1cc(OCC(=O)O)cc(C)c1Cc1ccc(O)c(C(C)C)c1 [GC-1, 3,5-dimethyl-4-(4′-hydroxy-3′-isopropylbenzyl)-phenoxy acetic acid] | Agonist, TRβ selective | Agonist, TRβ selective | EC50T3/EC50Ligand·100% (human TRα-1): 89.66%; Detection limit (lowest concentration giving unambiguous growth signal) (human TRα-1; TRα biosensor, visual inspection of dose-response curves): […]; Z′ (human TRα-1; pMIT::TRα-1, Z′ factor, highest vs lowest ligand concentration): 0.79; EC50 (TRα): […]
3 | N[C@@H](Cc1cc(I)c(Oc2ccc(O)c(I)c2)c(I)c1)C(=O)[O-].O.[Na+] [T3, 3,3′,5-triiodo-L-thyronine sodium salt hydrate] | Agonist | Agonist | 
4 | O=C(O)Cc1cc(I)c(Oc2ccc(O)c(I)c2)c(I)c1 [Triac, 3,3′,5-triiodothyroacetic acid] | Agonist, TRβ selective | Agonist, TRβ selective | Potency higher than T3 (TRα and TRβ; binding to TRβ): 6 fold; Affinity higher than T3 (TRβ): approximately 3 fold
5 | CC(C)(c1ccc(O)cc1)c1ccc(O)cc1 [bisphenol A] |  |  | Relative binding affinity (RBA=EC50Estradiol/EC50Ligand×100 %) (human ER β): 1.15%; Relative binding affinity (RBA=EC50Estradiol/EC50Ligand×100 %) (porcine ER β): 0.13%
